Assay results as given in patent US8563542B2 (Cyclacel Limited, priority 2007, dated 2013).

Legend:
PLK1 = PLK1 (Homo sapiens, UniProt P53350); test: PLK1 protein kinase assay (CDC25C phosphorylation, [γ-32P]-ATP); assay type: biochemical; details: Table 2, PLK1 IC50; class symbols; read-out: PLK1 IC50
AA = target: T1, AA (Homo sapiens, UniProt O14965); test: AA IC50 (Table 1; no method given); assay type: biochemical; details: Table 2, AurA IC50; class symbols; read-out: AurA IC50
T1 sequence (O14965 1-403): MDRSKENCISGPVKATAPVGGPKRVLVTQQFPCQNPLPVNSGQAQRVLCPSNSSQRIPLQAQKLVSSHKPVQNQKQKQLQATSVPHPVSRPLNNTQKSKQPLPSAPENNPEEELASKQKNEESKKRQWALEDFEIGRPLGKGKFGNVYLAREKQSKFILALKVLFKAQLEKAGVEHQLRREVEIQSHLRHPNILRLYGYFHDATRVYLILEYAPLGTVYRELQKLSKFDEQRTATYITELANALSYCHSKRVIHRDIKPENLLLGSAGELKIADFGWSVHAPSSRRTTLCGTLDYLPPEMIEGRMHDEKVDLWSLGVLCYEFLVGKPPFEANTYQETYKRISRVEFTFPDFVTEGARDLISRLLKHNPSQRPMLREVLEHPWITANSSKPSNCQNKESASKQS

PLK1, sequence (P53350 whole entry): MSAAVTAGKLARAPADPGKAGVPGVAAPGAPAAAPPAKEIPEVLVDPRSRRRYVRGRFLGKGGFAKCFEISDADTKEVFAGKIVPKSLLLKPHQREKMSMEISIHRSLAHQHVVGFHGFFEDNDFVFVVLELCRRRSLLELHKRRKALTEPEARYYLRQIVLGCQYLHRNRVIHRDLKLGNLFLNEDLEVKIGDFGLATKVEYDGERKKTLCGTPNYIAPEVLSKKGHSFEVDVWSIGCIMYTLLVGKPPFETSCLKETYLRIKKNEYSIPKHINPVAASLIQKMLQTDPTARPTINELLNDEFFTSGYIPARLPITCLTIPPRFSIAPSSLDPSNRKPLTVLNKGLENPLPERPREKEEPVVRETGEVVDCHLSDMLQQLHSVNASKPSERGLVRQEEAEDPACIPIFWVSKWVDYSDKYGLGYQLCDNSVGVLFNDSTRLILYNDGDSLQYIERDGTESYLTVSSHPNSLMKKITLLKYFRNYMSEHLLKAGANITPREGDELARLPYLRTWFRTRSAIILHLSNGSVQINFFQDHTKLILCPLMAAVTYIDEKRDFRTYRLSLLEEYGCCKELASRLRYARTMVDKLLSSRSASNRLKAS

For CN1C(=O)CCN(C2CCCC2)c2nc(Nc3ccccc3)ncc21 [compound 70, 9-Cyclopentyl-5-methyl-2-phenylamino-5,7,8,9-tetrahydro-pyrimido[4,5-b][1,4]diazepin-6-one], the IC50 (PLK1) was < 10 µM and the IC50 (AA) was < 1000 nM.
With CCC1CN(C2CCCC2)c2nc(Nc3ccc4c(c3)CS(=O)(=O)C4)ncc2N(C)C1=O (stereo not drawn) [compound 74, 9-Cyclopentyl-2-(2,2-dioxo-2,3-dihydro-1H-2lambda*6*-benzo[c]thiophen-5-ylamino)-7-ethyl-5-methyl-5,7,8,9-tetrahydro-pyrimido[4,5-b][1,4]diazepin-6-one] the IC50 (PLK1) was < 1 µM and the IC50 (AA) was < 100 nM.
In the case of CC1CN(C2CCCC2)c2nc(Nc3ccc4c(c3)CS(=O)(=O)C4)ncc2N(C)C1=O (stereo not drawn) [compound 76, 9-Cyclopentyl-2-(2,2-dioxo-2,3-dihydro-1H-2lambda*6*-benzo[c]thiophen-5-ylamino)-5,7-dimethyl-5,7,8,9-tetrahydro-pyrimido[4,5-b][1,4]diazepin-6-one], the IC50 (PLK1) is reported as < 1 µM and the IC50 (AA) is reported as < 100 nM.
In the case of CN1C(=O)C(C)(C)CN(C2CCCC2)c2nc(Nc3ccc4c(c3)CS(=O)(=O)C4)ncc21 [compound 77, 9-Cyclopentyl-2-(2,2-dioxo-2,3-dihydro-1H-2lambda*6*-benzo[c]thiophen-5-ylamino)-5,7,7-trimethyl-5,7,8,9-tetrahydro-pyrimido[4,5-b][1,4]diazepin-6-one], the IC50 (PLK1) is reported as < 1 µM and the IC50 (AA) is reported as < 1000 nM.
With CN1C(=O)C2(CC2)CN(C2CCCC2)c2nc(Nc3ccc4c(c3)CS(=O)(=O)C4)ncc21 [compound 78, (9-Cyclopentyl-2-(2,2-dioxo-2,3-dihydro-1H-2lambda*6*-benzo[c]thiophen-5-ylamino)5-methyl-6-oxo-6,7,8,9-tetrahydro-5H-spiro[pyrimido[4,5-b][1,4]diazepin-3,1′-cyclopropane]] the IC50 (PLK1) was < 1 µM and the IC50 (AA) was < 100 nM.
With CN1C(=O)CCN(C2CCCC2)c2nc(Nc3ccc(C(N)=O)cc3)ncc21 [compound 83, 4-(9-Cyclopentyl-5-methyl-6-oxo-6,7,8,9-tetrahydro-5H-pyrimido[4,5-b][1,4]diazepin-2-ylamino)-benzamide] the IC50 (PLK1) was < 1 µM and the IC50 (AA) was < 100 nM.
With CN1C(=O)C2(CC2)CN(C2CCCC2)c2nc(Nc3ccc(C(=O)O)cc3)ncc21 [compound 84, 4-(9-Cyclopentyl-5-methyl-6-oxo-6,7,8,9-tetrahydro-5H-spiro[pyrimido[4,5-b][1,4]diazepin-3,1′-cyclopropane]-2-ylamino)-benzoic acid] the IC50 (PLK1) was < 1 µM and the IC50 (AA) was < 10000 nM.
In the case of CN(C)C(=O)c1ccc(Nc2ncc3c(n2)N(C2CCCC2)CCC(=O)N3C)cc1 [compound 85, 4-(9-Cyclopentyl-5-methyl-6-oxo-6,7,8,9-tetrahydro-5H-pyrimido[4,5-b][1,4]diazepin-2-ylamino)-N,N-dimethyl-benzamide], the IC50 (PLK1) is reported as < 10 µM and the IC50 (AA) is reported as < 100 nM.
With CC(=O)NCc1ccc(Nc2ncc3c(n2)N(C2CCCC2)CCC(=O)N3C)cc1 [compound 86, N-[4-(9-Cyclopentyl-5-methyl-6-oxo-6,7,8,9-tetrahydro-5H-pyrimido[4,5-b][1,4]diazepin-2-ylamino)-benzyl]-acetamide] the IC50 (PLK1) was < 10 µM and the IC50 (AA) was < 100 nM.
For CNC(=O)c1ccc(Nc2ncc3c(n2)N(C2CCCC2)CCC(=O)N3C)c(OC)c1 [compound 87, 4-(9-Cyclopentyl-5-methyl-6-oxo-6,7,8,9-tetrahydro-5H-pyrimido[4,5-b][1,4]diazepin-2-ylamino)-3-methoxy-N-methyl-benzamide], the IC50 (PLK1) was < 0.1 µM and the IC50 (AA) was < 10000 nM.
With COc1cc(C(=O)N(C)C)ccc1Nc1ncc2c(n1)N(C1CCCC1)CCC(=O)N2C [compound 88, 4-(9-Cyclopentyl-5-methyl-6-oxo-6,7,8,9-tetrahydro-5H-pyrimido[4,5-b][1,4]diazepin-2-ylamino)-3-methoxy-N,N-dimethyl-benzamide] the IC50 (PLK1) was < 1 µM and the IC50 (AA) was < 10000 nM.
For COc1cc(C(N)=O)ccc1Nc1ncc2c(n1)N(C1CCCC1)CCC(=O)N2C [compound 89, 4-(9-Cyclopentyl-5-methyl-6-oxo-6,7,8,9-tetrahydro-5H-pyrimido[4,5-b][1,4]diazepin-2-ylamino)-3-methoxy-benzamide], the IC50 (PLK1) was < 0.1 µM and the IC50 (AA) was < 10000 nM.
In the case of CC(=O)NCc1cccc(Nc2ncc3c(n2)N(C2CCCC2)CCC(=O)N3C)c1 [compound 90, N-[3-(9-Cyclopentyl-5-methyl-6-oxo-6,7,8,9-tetrahydro-5H-pyrimido[4,5-b][1,4]diazepin-2-ylamino)-benzyl]-acetamide], the IC50 (PLK1) is reported as < 10 µM and the IC50 (AA) is reported as < 1000 nM.
In the case of CN1C(=O)CCN(C2CCCC2)c2nc(Nc3cccc(CN)c3)ncc21 [compound 91, 2-(3-Aminomethyl-phenylamino)-9-cyclopentyl-5-methyl-5,7,8,9-tetrahydro-pyrimido[4,5-b][1,4]diazepin-6-one], the IC50 (PLK1) is reported as < 10 µM and the IC50 (AA) is reported as < 1000 nM.
For CN1C(=O)CCN(C2CCCC2)c2nc(Nc3ccc(S(=O)(=O)NCc4ccccc4)cc3)ncc21 [compound 93, N-Benzyl-4-(9-cyclopentyl-5-methyl-6-oxo-6,7,8,9-tetrahydro-5H-pyrimido[4,5-b][1,4]diazepin-2-ylamino)-benzenesulfonamide], the IC50 (PLK1) was < 10 µM and the IC50 (AA) was < 100 nM.
In the case of CNS(=O)(=O)c1ccc(Nc2ncc3c(n2)N(C2CCCC2)CCC(=O)N3C)cc1 [compound 96, 4-(9-Cyclopentyl-5-methyl-6-oxo-6,7,8,9-tetrahydro-5H-pyrimido[4,5-b][1,4]diazepin-2-ylamino)-N-methyl-benzenesulfonamide], the IC50 (PLK1) is reported as < 10 µM and the IC50 (AA) is reported as < 100 nM.
CC(=O)N(C)S(=O)(=O)c1ccc(Nc2ncc3c(n2)N(C2CCCC2)CCC(=O)N3C)cc1 [compound 97, N-Acetyl-4-(9-cyclopentyl-5-methyl-6-oxo-6,7,8,9-tetrahydro-5H-pyrimido[4,5-b][1,4]diazepin-2-ylamino)-N-methyl-benzenesulfonamide] was tested, and the IC50 (PLK1) was < 10 µM and the IC50 (AA) was < 100 nM.
In the case of CN1CCC(NS(=O)(=O)c2cccc(Nc3ncc4c(n3)N(C3CCCC3)CCC(=O)N4C)c2)CC1 [compound 103, 3-(9-Cyclopentyl-5-methyl-6-oxo-6,7,8,9-tetrahydro-5H-pyrimido[4,5-b][1,4]diazepin-2-ylamino)-N-(1-methyl-piperidin-4-yl)-benzenesulfonamide], the IC50 (PLK1) is reported as < 10 µM and the IC50 (AA) is reported as < 1000 nM.
In the case of COCCNS(=O)(=O)c1ccc(Nc2ncc3c(n2)N(C2CCCC2)CCC(=O)N3C)cc1 [compound 104, 4-(9-Cyclopentyl-5-methyl-6-oxo-6,7,8,9-tetrahydro-5H-pyrimido[4,5-b][1,4]diazepin-2-ylamino)-N-(2-methoxy-ethyl)-benzenesulfonamide], the IC50 (PLK1) is reported as < 10 µM and the IC50 (AA) is reported as < 100 nM.
COCCNS(=O)(=O)c1cccc(Nc2ncc3c(n2)N(C2CCCC2)CCC(=O)N3C)c1 [compound 108, 3-(9-Cyclopentyl-5-methyl-6-oxo-6,7,8,9-tetrahydro-5H-pyrimido[4,5-b][1,4]diazepin-2-ylamino)-N-(2-methoxy-ethyl)-benzenesulfonamide] was tested, and the IC50 (PLK1) was < 10 µM and the IC50 (AA) was < 1000 nM.
For CN1C(=O)CCN(C2CCCC2)c2nc(Nc3cccc(S(=O)(=O)N4CCCC4)c3)ncc21 [compound 109, 9-Cyclopentyl-5-methyl-2-[3-(pyrrolidine-1-sulfonyl)-phenylamino]-5,7,8,9-tetrahydro-pyrimido[4,5-b][1,4]diazepin-6-one], the IC50 (PLK1) was < 1 µM and the IC50 (AA) was < 1000 nM.
In the case of CN1C(=O)CCN(C2CCCC2)c2nc(Nc3cccc(S(=O)(=O)NCc4ccccc4)c3)ncc21 [compound 110, N-Benzyl-3-(9-cyclopentyl-5-methyl-6-oxo-6,7,8,9-tetrahydro-5H-pyrimido[4,5-b][1,4]diazepin-2-ylamino)-benzenesulfonamide], the IC50 (PLK1) is reported as < 10 µM and the IC50 (AA) is reported as < 1000 nM.
In the case of CC(C)N1CCC(=O)N(C)c2cnc(Nc3ccc4c(c3)CS(=O)(=O)C4)nc21 [compound 115, 2-(2,2-Dioxo-2,3-dihydro-1H-2lambda*6*- benzo[c]thiophen-5-ylamino)-9-isopropyl-5-methyl-5,7,8,9-tetrahydro-pyrimido[4,5-b][1,4]diazepin-6-one], the IC50 (PLK1) is reported as < 10 µM and the IC50 (AA) is reported as < 100 nM.
CN1C(=O)C2(CCC2)CN(C2CCCC2)c2nc(Nc3ccc4c(c3)CS(=O)(=O)C4)ncc21 [compound 117, (9-Cyclopentyl-2-(2,2-dioxo-2,3-dihydro-1H-2lambda*6*-benzo[c]thiophen-5-ylamino)5-methyl-6-oxo-6,7,8,9-tetrahydro-5H-spiro[pyrimido[4,5-b][1,4]diazepin-3,1′-cyclobutane+] was tested, and the IC50 (PLK1) was < 1 µM and the IC50 (AA) was < 1000 nM.
C=CCN1CCC(=O)N(C)c2cnc(Nc3ccc4c(c3)CS(=O)(=O)C4)nc21 [compound 119, 9-Allyl-2-(2,2-dioxo-2,3-dihydro-1H-2lambda*6*-benzo[c]thiophen-5-ylamino)-5-methyl-5,7,8,9-tetrahydro-pyrimido[4,5-b][1,4]diazepin-6-one] was tested, and the IC50 (PLK1) was < 10 µM and the IC50 (AA) was < 100 nM.
For CN1C(=O)CCN(C2CCCC2)c2nc(Nc3ccc(Cl)cc3)ncc21 [compound 123, 2-(4-Chloro-phenylamino)-9-cyclopentyl-5-methyl-5,7,8,9-tetrahydro-pyrimido[4,5-b][1,4]diazepin-6-one], the IC50 (PLK1) was < 1 µM and the IC50 (AA) was < 1000 nM.
In the case of CN1C(=O)CCN(C2CCCC2)c2nc(NCc3ccco3)ncc21 [compound 124, 9-Cyclopentyl-2-[(furan-2-ylmethyl)-amino]-5-methyl-5,7,8,9-tetrahydro-pyrimido[4,5-b][1,4]diazepin-6-one], the IC50 (PLK1) is reported as < 10 µM and the IC50 (AA) is reported as < 10000 nM.
